Laboratory results as given in patent US9914760B2, “Methods of identifying, isolating and using odorant and aroma receptors” (Firmenich SA, priority 2013, dated 2018).

Target: Olfr743 (Mus musculus, UniProt L7N1Y2)
Experiment: cell-based cAMP assay (HTRF), HEK293T co-transfected with Gαolf
Conditions: for receptor activity (cAMP, HTRF): increasing concentrations, FIGS. 5A-5D
Source text: The activity of candidate mouse receptors Olfr740 (SEQ ID NO: 1 and SEQ ID NO: 2), Olfr743 (SEQ ID NO: 5 and SEQ ID NO: 6), and Olfr746 (SEQ ID NO: 37 and SEQ ID NO: 38) to both indole and skatole malodors were confirmed in cell-based cAMP assays. In FIGS. 5A and 5B, FLAG Rho-tagged (SEQ ID 18) Olfr743 (SEQ ID NO: 6) and Olfr740 (SEQ ID NO: 2) cDNA sequences were co-transfected with Gαolf (SEQ ID NO: 21) and exposed to increasing concentrations of indole (left) or skatole (right). FIGS. 5C and 5D are repeat experiments showing similar activity of Olfr740 (SEQ ID NO: 2) with Olfr743 (SEQ ID NO: 6) with indole and skatole. In FIG. 5E, the FLAG Rho-tagged (SEQ ID 18) Olfr746 (SEQ ID NO: 38) cDNA sequence was co-transfected with Gαolf (SEQ ID NO: 21) and exposed to increasing concentrations of indole or skatole. Odorant-induced activity was detected by measuring cAMP levels in the cytosol using the HTRF approach (CisBio kit). […] Co-transfection of HEK cells with Gαolf (SEQ ID NO: 21) alone (no receptor) were used as controls for non-specific activity (control). Activity is defined as the baseline corrected HTRF ratios normalized to the highest signal in the experiment. […] All three receptors show specific dose dependent activity to the malodor compounds and, as such, validate the process for identifying receptors for these compounds. Mouse receptors Olfr740 (SEQ ID NO: 1 and SEQ ID NO: 2) and Olfr743 (SEQ ID NO: 5 and SEQ ID NO: 6) were identified from isolated olfactory neurons that responded to both indole and skatole. Mouse receptor Olfr746 (SEQ ID NO: 37 and SEQ ID NO: 38) was identified in silico by database mining using Olfr740 (SEQ ID NO: 2) and Olfr743 (SEQ ID NO: 6) as query sequences. The receptors are modified at their N-terminus with the FLAG tag and the first 20 amino acids of the bovine rhodopsin receptor (SEQ ID 18), transiently expressed in HEK 293T cells, and stimulated separately with indole and skatole to confirm their identity as bona fide indole/skatole receptors. Co-expression of the human G alpha subunit Gαolf (SEQ ID NO: 21) activates the Gs transduction pathway that leads to an internal cAMP increase upon binding to the appropriate ligand.
Once identified using the procedure outlined herein, the resulting malodor receptor cell lines can be used to screen chemical libraries for compounds that modulate their activity and possibly human perception. This experiment was performed under the same conditions as in Example 4. Cells transfected with Rho-tagged (SEQ ID NO: 18) Olfr743 (SEQ ID NO: 6) were exposed to increasing concentrations of indole in the presence or absence of 300 μM 2-actetonaphthone. […] In the presence of the antagonist compound, a rightward shift of in the dose-response curve is observed resulting in a 4 fold increase in the EC50 to indole. Activity is defined as the baseline corrected HTRF ratios normalized to the highest signal in the experiment.

Chain of Olfr743 (P38405 2-381): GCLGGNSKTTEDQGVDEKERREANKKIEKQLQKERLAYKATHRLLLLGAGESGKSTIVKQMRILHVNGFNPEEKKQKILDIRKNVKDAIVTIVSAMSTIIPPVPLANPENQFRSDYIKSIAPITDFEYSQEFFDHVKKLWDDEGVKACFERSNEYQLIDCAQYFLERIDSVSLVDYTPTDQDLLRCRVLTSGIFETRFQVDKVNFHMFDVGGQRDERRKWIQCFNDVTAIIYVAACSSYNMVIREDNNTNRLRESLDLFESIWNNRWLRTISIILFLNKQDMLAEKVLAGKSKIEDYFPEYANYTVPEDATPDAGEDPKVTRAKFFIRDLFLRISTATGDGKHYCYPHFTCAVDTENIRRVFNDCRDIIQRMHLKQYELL
Chain of Olfr743 (L7N1Y2 entry or part of it): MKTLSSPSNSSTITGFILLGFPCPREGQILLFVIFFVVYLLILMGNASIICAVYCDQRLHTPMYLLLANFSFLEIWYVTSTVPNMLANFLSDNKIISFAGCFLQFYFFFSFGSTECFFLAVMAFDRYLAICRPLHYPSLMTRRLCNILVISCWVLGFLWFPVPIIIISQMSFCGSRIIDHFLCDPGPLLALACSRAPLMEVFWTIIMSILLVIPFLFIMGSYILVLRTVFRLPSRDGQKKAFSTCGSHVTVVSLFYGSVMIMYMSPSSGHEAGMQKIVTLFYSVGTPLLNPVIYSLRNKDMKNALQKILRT

**Q.** Which EC50 (EC50, indole alone, absence of 2-acetonaphthone) does the source give for `c1ccc2[nH]ccc2c1` [indole] here?
**A.** 54 µM

**Q.** What about the EC50 (EC50, indole in the presence of 300 μM 2-acetonaphthone) of the same compound?
**A.** 206 µM

**Q.** And the “receptor activity (cAMP, HTRF)” value?
**A.** dose-dependent increase of receptor activity

**Q.** `Cc1c[nH]c2ccccc12` [skatole, 3-methyl indole] was tested. Which “receptor activity (cAMP, HTRF)” value did it give?
**A.** dose-dependent increase of receptor activity
